{
  "source": "patent US20080159987A1",
  "about": "(priority 2007, published 2008)",
  "key": {"[1]": {"system": "IBS patients with RLS", "assay": "Open-label, observational pilot trial: RLS symptom improvement", "type": "in vivo, human", "description": "It was suspected that the patient might have postinfectious IBS and SIBO.\n(§1) Patients visiting a community-based adult gastroenterology clinic over a 4-month period were eligible for the study if they presented with functional bowel symptoms and had abnormal lactulose breath test (LBT) results. Patients were excluded if they had celiac disease, Crohn's disease, pancreatic insufficiency, ulcerative colitis, scleroderma, diabetes, chronic renal failure, or surgeries predisposing them to SIBO. A diagnosis of RLS was confirmed using the Johns Hopkins validated interview process.\n(§2) This was followed by long-term administration of the prokinetic medicine tegaserod (ZELNORM® produced by Novartis Pharmaceuticals Corporation, East Hanover, N.J.) 3 mg nightly plus short-term treatment with zinc 220 mg/d for one month for increased small intestinal permeability and a bifidobacteria-based probiotic (FLORA-Q® produced by Kenwood Therapeutics, Fairfield, N.J.) once daily for one month. Two patients were treated with rifaximin alone.\n(§3) The percentage of RLS symptom improvement was assessed at the end of follow-up.\nThirteen IBS patients with confirmed RLS were included in the study. Eleven of these 13 patients were originally included in a SIBO study of IBS: 19 of 161 patients with an abnormal LBT result thought they had RLS. A diagnosis of RLS was confirmed in 11 of these 19 patients by the Johns Hopkins validated interview process. The remaining 2 of 13 patients with RLS (1 was the propositus and the other was referred from a neurology clinic) had been previously evaluated and treated for RLS by a neurologist.\n(§4) The remaining two patients (the neurology clinic patient and propositus) received a modified treatment regimen.\nPercentages of RLS and IBS symptom improvement as well as global IBS symptom improvement were assessed at a mean of 107 days (range, 22-450 days). […] The ten patients who responded included the three patients who had borderline or low serum levels of iron at baseline. […]"}, "[2]": {"system": "IBS patients with RLS", "assay": "Open-label, observational pilot trial: GI (IBS) symptom improvement questionnaire", "type": "in vivo, human", "description": "as §1, §2\nEach patient completed a questionnaire identifying the occurrence and rating the severity of six IBS symptoms experienced during the week before the LBT was conducted (baseline): abdominal pain, bloating, constipation, diarrhea, flatulence, and postprandial fullness. A history consistent with RLS and fibromyalgia was sought. Serum ferritin levels were measured at baseline.\nas §3, §4\nPercentages of RLS and IBS symptom improvement as well as global IBS symptom improvement were assessed at a mean of 107 days (range, 22-450 days). […] The ten patients who responded included the three patients who had borderline or low serum levels of iron at baseline. […] Eight of the ten patients with at least 80% improvement in RLS symptoms were followed long-term (mean, 139 days; range, 54-450 days), and 5 of the 8 patients reported complete (100%) resolution of RLS symptoms at the last follow-up visit."}, "[3]": {"system": "IBS patients with RLS", "assay": "Follow-up lactulose breath test (LBT)", "type": "in vivo, human", "conditions": "neurology patient, two months after completing rifaximin therapy", "description": "Patients consumed a low carbohydrate dinner and fasted overnight. Breath samples were collected every 15 minutes for 180 minutes and were analyzed by gas chromatography (using, for example, a QUINTRON DP PLUS MICROLYZER™ manufactured by QuinTron Instrument Company, Milwaukee, Wis.) for levels of hydrogen and methane. After a baseline recording, patients consumed 10 g of lactulose powder (for example, KRISTALOSE® produced by Bertek Pharmaceuticals Inc, Sugar Land, Tex.) dissolved in 240 mL of water. An abnormal LBT result was defined as an increase of greater than 20 ppm above baseline levels for hydrogen and/or methane gas 180 minutes or less after ingesting lactulose. An abnormal flatline LBT result was defined as a lack of a greater than 5-ppm increase above baseline levels for either hydrogen or methane during the 180-minute test. The role of SIBO in IBS and diseases other than restless legs syndrome, as well as the efficacy of breath tests in the diagnosis of SIBO is discussed in U.S. Pat. Nos. 6,861,053; 6,805,852; 7,056,686; and 7,048,906 to Lin and Pimentel, the disclosures of each of which are expressly incorporated by reference herein."}, "[4]": {"conditions": "cited from earlier work"}, "[5]": {"conditions": "day 11, after ten days of rifaximin therapy"}, "[6]": {"conditions": "end of follow-up (mean 107 days), rifaximin followed by tegaserod, zinc, probiotic in 11 of 13"}, "[7]": {"conditions": "last follow-up visit, 13 patients"}},
  "data": [
    {"smiles": "CO[C@H]1/C=C/O[C@@]2(C)Oc3c(C)c(O)c4c(O)c(c5c(nc6cc(C)ccn65)c4c3C2=O)NC(=O)/C(C)=C\\C=C\\[C@H](C)[C@H](O)[C@@H](C)[C@@H](O)[C@@H](C)[C@H](OC(C)=O)[C@@H]1C", "note": "[rifaximin]", "values": [
      {"measurement": "patients reporting complete (100%) resolution of RLS symptoms at the last follow-up visit", "setting": "[1]; of 8 responders followed long-term (mean 139 days; range 54-450 days)", "result": "5 of the 8"},
      {"measurement": "patients exhibiting at least 80% improvement in RLS symptoms at the last follow-up visit", "setting": "[1]; rifaximin 400 mg three times daily for ten days, in 11 of 13 followed by tegaserod, zinc, probiotic, assessed at mean 107 days (range 22-450)", "result": "Ten of 13"},
      {"measurement": "response for both RLS and IBS symptoms", "setting": "[1]; single patient (propositus), empiric treatment with rifaximin", "result": "dramatic, rapid, and prolonged response"},
      {"measurement": "GI symptom improvement: abdominal pain", "setting": "[2]; [5]", "result": 74, "unit": "%"},
      {"measurement": "GI symptom improvement: bloating", "setting": "[2]; [5]", "result": 70, "unit": "%"},
      {"measurement": "GI symptom improvement: constipation", "setting": "[2]; [5]", "result": 64, "unit": "%"},
      {"measurement": "GI symptom improvement: diarrhea", "setting": "[2]; [5]", "result": 73, "unit": "%"},
      {"measurement": "GI symptom improvement: flatulence", "setting": "[2]; [5]", "result": 47, "unit": "%"},
      {"measurement": "GI symptom improvement: postprandial fullness", "setting": "[2]; [5]", "result": 65, "unit": "%"},
      {"measurement": "GI symptom improvement: abdominal pain", "setting": "[2]; [6]", "result": 81, "unit": "%"},
      {"measurement": "GI symptom improvement: bloating", "setting": "[2]; [6]", "result": 76, "unit": "%"},
      {"measurement": "GI symptom improvement: constipation", "setting": "[2]; [6]", "result": 59, "unit": "%"},
      {"measurement": "GI symptom improvement: diarrhea", "setting": "[2]; [6]", "result": 68, "unit": "%"},
      {"measurement": "GI symptom improvement: flatulence", "setting": "[2]; [6]", "result": 55, "unit": "%"},
      {"measurement": "GI symptom improvement: postprandial fullness", "setting": "[2]; [6]", "result": 67, "unit": "%"},
      {"measurement": "global symptom improvement rated as greatly improved", "setting": "[2]; [7]", "result": 6, "unit": "patients"},
      {"measurement": "global symptom improvement rated as mildly improved", "setting": "[2]; [7]", "result": "two"},
      {"measurement": "global symptom improvement rated as moderately improved", "setting": "[2]; [7]", "result": "five"},
      {"measurement": "LBT result after therapy", "setting": "[3]", "result": "normal"},
      {"measurement": "solubility in water", "setting": "[4]", "result": "practically insoluble in water"}
    ]}
  ]
}
